Experimental data: US11254668B2, “Pyrazolo[1,5-A]pyrazin-4-yl and related derivatives” (Pfizer Inc., priority 2017, dated 2022)

Assays:
Format in all cases: biochemical
JAK3 = JAK3 (Homo sapiens (Human), UniProt P52333); test: JAK Caliper Enzyme Assay at 1 mM ATP, JAK3
Method in brief: (§1)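 Recombinant human kinase domains phosphorylated a fluorescent synthetic peptide at room temperature, with enzyme level and time tuned to 20% to 30% conversion; EDTA stop buffer ended reactions. Mobility-shift separation gave percent product from peak heights, normalised to DMSO and positive controls, and IC50s came from concentration–effect curves.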

TYK2 = TYK2 (Homo sapiens (Human), UniProt P29597); test: JAK Caliper Enzyme Assay at 1 mM ATP, TYK2
Method in brief: (§2)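 Inhibition is measured as reduced phosphorylation of a synthetic peptide by the recombinant human kinase domain at 1 mM ATP. Conditions give 20–30% conversion at room temperature before EDTA quench, and on-chip separation of labelled substrate and product yields percent conversion for dose–response plotting.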

JAK1 = JAK1 (Homo sapiens (Human), UniProt P23458); test: JAK Caliper Enzyme Assay at 1 mM ATP, JAK1
Method in brief: as §1

JAK2 = JAK2 (Homo sapiens (Human), UniProt O60674); test: JAK Caliper Enzyme Assay at 1 mM ATP, JAK2
Method in brief: as §2

TYK2, sequence (P29597 897-1176): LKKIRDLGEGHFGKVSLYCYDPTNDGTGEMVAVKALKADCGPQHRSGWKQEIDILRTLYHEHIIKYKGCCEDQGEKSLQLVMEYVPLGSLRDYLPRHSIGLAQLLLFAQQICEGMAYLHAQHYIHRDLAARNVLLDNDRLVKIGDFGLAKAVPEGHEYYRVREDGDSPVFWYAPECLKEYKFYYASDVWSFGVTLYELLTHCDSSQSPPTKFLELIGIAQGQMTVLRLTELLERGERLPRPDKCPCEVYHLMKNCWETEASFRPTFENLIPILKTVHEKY
JAK2, sequence (O60674 849-1124): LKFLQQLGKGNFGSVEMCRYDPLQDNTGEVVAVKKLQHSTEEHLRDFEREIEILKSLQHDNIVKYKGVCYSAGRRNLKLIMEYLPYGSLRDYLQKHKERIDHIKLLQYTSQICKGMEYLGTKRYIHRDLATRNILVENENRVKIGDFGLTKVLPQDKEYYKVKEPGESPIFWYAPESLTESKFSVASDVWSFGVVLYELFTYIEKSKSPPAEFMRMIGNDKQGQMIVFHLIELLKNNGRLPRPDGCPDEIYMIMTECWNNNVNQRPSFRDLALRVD
JAK3, sequence (P52333 822-1111): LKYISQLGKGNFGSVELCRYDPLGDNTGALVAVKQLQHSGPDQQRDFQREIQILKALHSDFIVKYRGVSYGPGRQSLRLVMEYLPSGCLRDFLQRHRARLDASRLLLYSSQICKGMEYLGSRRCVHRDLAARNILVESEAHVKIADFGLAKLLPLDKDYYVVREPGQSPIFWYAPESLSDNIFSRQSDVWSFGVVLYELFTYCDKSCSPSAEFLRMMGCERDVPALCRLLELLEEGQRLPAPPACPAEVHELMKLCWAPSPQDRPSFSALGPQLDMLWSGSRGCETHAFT
JAK1, sequence (P23458 875-1153): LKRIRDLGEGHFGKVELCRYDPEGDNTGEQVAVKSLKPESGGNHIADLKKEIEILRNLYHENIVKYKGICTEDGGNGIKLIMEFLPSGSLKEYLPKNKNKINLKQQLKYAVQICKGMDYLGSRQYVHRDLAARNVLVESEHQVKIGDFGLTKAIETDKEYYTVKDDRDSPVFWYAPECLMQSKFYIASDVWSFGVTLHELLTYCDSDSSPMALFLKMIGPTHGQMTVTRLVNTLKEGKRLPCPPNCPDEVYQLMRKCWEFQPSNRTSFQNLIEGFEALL

Row | Compound | IC50 (JAK3) | IC50 (TYK2) | IC50 (JAK1) | IC50 (JAK2)
1 | Cc1n[nH]cc1-c1cc2ncccc2c(-c2ccn(C3(CC#N)CN(S(C)(=O)=O)C3)n2)n1 [Example 88, [3-{3-[7-(3-methyl-1H-pyrazol-4-yl)-1,6-naphthyridin-5-yl]-1H-pyrazol-1-yl}-1-(methylsulfonyl)azetidin-3-yl]acetonitrile] | > 10000 nM | 60 nM | 1620 nM | 875 nM
2 | N#CC[C@]1(n2ccc(-c3nc(-c4cn[nH]c4CO)cc4ncccc34)n2)C[C@H](C#N)C1 [Example 91, trans-3-(cyanomethyl)-3-(3-{7-[5-(hydroxymethyl)-1H-pyrazol-4-yl]-1,6-naphthyridin-5-yl}-1H-pyrazol-1-yl)cyclobutanecarbonitrile] | > 10000 nM | 34 nM | 562 nM | 160 nM
3 | CS(=O)(=O)N1CC(CC#N)(n2ccc(-c3nc(-c4c[nH]nc4N)cc4ncccc34)n2)C1 [Example 93, [3-{3-[7-(3-amino-1H-pyrazol-4-yl)-1,6-naphthyridin-5-yl]-1H-pyrazol-1-yl}-1-(methylsulfonyl)azetidin-3-yl]acetonitrile] | 5060 nM | 7 nM | 121 nM | 46 nM
4 | CCN1CC(CC#N)(n2ccc(-c3nc(-c4c[nH]nc4N)cc4ncccc34)n2)C1 [Example 94, (3-{3-[7-(3-amino-1H-pyrazol-4-yl)-1,6-naphthyridin-5-yl]-1H-pyrazol-1-yl}-1-ethylazetidin-3-yl)acetonitrile] | > 10000 nM | 94 nM | 2100 nM | 940 nM

The remaining lines, values ahead:

Row | IC50 (JAK3) | IC50 (TYK2) | IC50 (JAK1) | IC50 (JAK2) | Compound
5 | > 10000 nM | 410 nM | 2240 nM | 2450 nM | C[C@]1(C#N)C[C@](CC#N)(n2ccc(-c3nc(-c4cn[nH]c4)cc4ncccc34)n2)C1 [Example 83, trans-3-(cyanomethyl)-1-methyl-3-{3-[7-(1H-pyrazol-4-yl)-1,6-naphthyridin-5-yl]-1H-pyrazol-1-yl}cyclobutanecarbonitrile]
6 | > 10000 nM | 22 nM | 240 nM | 174 nM | C[C@]1(C#N)C[C@@](CC#N)(n2ccc(-c3nc(-c4cn[nH]c4)cc4ncccc34)n2)C1 [Example 84, cis-3-(cyanomethyl)-1-methyl-3-{3-[7-(1H-pyrazol-4-yl)-1,6-naphthyridin-5-yl]-1H-pyrazol-1-yl}cyclobutanecarbonitrile]
7 | 5240 nM | 30 nM | 166 nM | 103 nM | N#CC[C@]1(n2ccc(-c3nc(-c4cn[nH]c4)cc4ncccc34)n2)C[C@@H](c2ccn[nH]2)C1 [Example 85, [cis-3-(1H-pyrazol-5-yl)-1-{3-[7-(1H-pyrazol-4-yl)-1,6-naphthyridin-5-yl]-1H-pyrazol-1-yl}cyclobutyl]acetonitrile]
8 | > 10000 nM | 89 nM | 1320 nM | 770 nM | Cc1n[nH]cc1-c1cc2ncccc2c(-c2ccn([C@]3(CC#N)C[C@@H](C#N)C3)n2)n1 [Example 89, trans-3-(cyanomethyl)-3-{3-[7-(3-methyl-1H-pyrazol-4-yl)-1,6-naphthyridin-5-yl]-1H-pyrazol-1-yl}cyclobutanecarbonitrile]
9 | > 10000 nM | 32 nM | 269 nM | 126 nM | Cc1n[nH]cc1-c1cc2ncccc2c(-c2ccn([C@]3(CC#N)C[C@H](C#N)C3)n2)n1 [Example 90, cis-3-(cyanomethyl)-3-{3-[7-(3-methyl-1H-pyrazol-4-yl)-1,6-naphthyridin-5-yl]-1H-pyrazol-1-yl}cyclobutanecarbonitrile]
10 | 1850 nM | 9 nM | 63 nM | 22 nM | N#CC[C@]1(n2ccc(-c3nc(-c4cn[nH]c4CO)cc4ncccc34)n2)C[C@@H](C#N)C1 [Example 92, cis-3-(cyanomethyl)-3-(3-{7-[5-(hydroxymethyl)-1H-pyrazol-4-yl]-1,6-naphthyridin-5-yl}-1H-pyrazol-1-yl)cyclobutanecarbonitrile]
